ChEMBL document CHEMBL1201862, “PubChem BioAssay data set” (2004)
Active and inactive are the calls of the source.

Columns and labels:
[1] = microbe, parasite or virus in culture; type: functional; details: Mycobacterium tuberculosis
[2] = growth suppression of beta-catenin-knockout colon cells, dose response, cell-based, HCT116, human colon tumor (AID 1045); type: functional;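 also: HCT116 colon tumor cells with beta catenin knocked out; cells exposed to compound for 60 hours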
[3] = growth suppression of PTEN-null colon cells, dose response, cell-based, HCT116 PTEN knockout (AID 1047); type: functional;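 also: HCT116 colon tumor cells with PTEN knocked out; cells exposed to compound for 60 hours before readout; potency for loss of cell viability measured by luminescence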
Estrogen receptor = biological target: T1, Estrogen receptor (Homo sapiens, UniProt P03372);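 also: potency for inhibiting coactivator peptide recruitment to the receptor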
T1 sequence (P03372 whole entry): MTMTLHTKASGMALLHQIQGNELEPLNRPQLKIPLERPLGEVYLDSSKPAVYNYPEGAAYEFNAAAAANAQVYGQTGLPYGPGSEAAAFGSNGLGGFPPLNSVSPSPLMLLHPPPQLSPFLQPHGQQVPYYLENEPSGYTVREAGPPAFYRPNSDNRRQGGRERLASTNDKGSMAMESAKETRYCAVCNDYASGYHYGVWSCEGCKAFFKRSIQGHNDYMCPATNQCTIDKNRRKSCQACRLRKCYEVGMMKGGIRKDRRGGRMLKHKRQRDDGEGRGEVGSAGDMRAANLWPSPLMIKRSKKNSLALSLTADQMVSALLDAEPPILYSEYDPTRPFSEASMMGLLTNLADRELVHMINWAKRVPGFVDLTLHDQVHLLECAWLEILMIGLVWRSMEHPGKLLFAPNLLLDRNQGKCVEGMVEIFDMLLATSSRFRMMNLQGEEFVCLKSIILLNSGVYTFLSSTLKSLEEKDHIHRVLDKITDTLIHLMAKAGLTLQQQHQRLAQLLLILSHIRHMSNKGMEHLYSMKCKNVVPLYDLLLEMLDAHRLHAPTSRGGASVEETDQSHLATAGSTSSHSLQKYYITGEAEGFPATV

[4] = P. falciparum Dd2 growth inhibitors, dose response, SYBR Green, cherry-picked samples (AID 1159567); type: functional, cell-based
[5] = inhibitors of HIV Env-driven cell fusion, dose response, cherry-pick (AID 652057); type: functional, cell-based
[6] = ZM109 Env clade C HIV-1 fusion inhibitors, dose response, HeLa effector, CEM target cells, luciferase, cherry-pick (AID 652058); type: functional, cell-based
[7] = inhibitors of clade B AD8 Env fusion, dose response, cell-based, cherry-pick (AID 652062); type: functional;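 also: luciferase signal from cell-cell fusion driven by HIV-1 clade B AD8 Env; potency is for inhibitors of fusion seen as a drop in luminescence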
[8] = off-target signal loss in HeLa-CEM21 co-culture – HeLa F-luc CTL cells, cherry-picked, counter-screen for HIV-1 Env fusion inhibitor project, dose response (AID 652040); type: functional, cell-based;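 also: potency for signal decrease marking cytotoxic or nonspecific inhibition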
[9] = biological target: Glucose-6-phosphate 1-dehydrogenase (Homo sapiens, UniProt P11413); assay: human G6PD enzyme inhibitors, dose response, selectivity assay for P. falciparum G6PD inhibitor project, biochemical, fluorescence (AID 504792); type: functional
Chain of Glucose-6-phosphate 1-dehydrogenase (P11413 whole entry): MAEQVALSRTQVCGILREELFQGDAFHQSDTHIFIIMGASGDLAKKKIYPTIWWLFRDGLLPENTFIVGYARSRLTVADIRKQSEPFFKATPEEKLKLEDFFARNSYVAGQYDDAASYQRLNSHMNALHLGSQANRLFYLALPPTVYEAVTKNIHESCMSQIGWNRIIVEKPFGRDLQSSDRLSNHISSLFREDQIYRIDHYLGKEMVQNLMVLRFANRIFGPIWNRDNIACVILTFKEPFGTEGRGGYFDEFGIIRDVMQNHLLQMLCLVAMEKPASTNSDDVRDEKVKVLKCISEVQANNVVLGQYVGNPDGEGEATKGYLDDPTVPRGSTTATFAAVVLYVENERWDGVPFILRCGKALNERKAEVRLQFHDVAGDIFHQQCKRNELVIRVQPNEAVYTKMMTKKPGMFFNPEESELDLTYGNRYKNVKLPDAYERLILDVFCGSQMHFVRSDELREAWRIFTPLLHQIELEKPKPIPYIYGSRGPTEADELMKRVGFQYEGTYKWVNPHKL

CN1CCN(c2cc(-c3ccccc3)nc3cc(-c4ccc(F)cc4)nn23)CC1
CC50 [1]: 11.7 µM (active)
EC50 [2]: 9.14 µM (active)
EC50 [3]: 10.6 µM (active)

COC(=O)c1cc(NC(=O)Cn2c(=O)cnc3ccccc32)cc(C(=O)OC)c1
IC50 (Estrogen receptor): > 50 µM (not active)

COc1cccc(NC(=O)N2CC(=O)N3[C@H](CO)[C@@H](c4ccc(C#CCC5CCCC5)cc4)[C@H]3C2)c1
AC50 [4]: 8.6 µM (active)

CC[C@@]12C(=O)N(c3ccccc3)C(=O)N1[C@H](c1cccc(C)c1)[C@@H]1C(=O)N(Cc3ccccc3)C(=O)[C@@H]12
AC50 [5]: 3.83 µM (active)
AC50 [6]: 3.8 µM (active)
AC50 [7]: 5.26 µM (active)
AC50 [8]: 4.02 µM (active)

Cc1cc(NC(=O)CCC(=O)N(C2CC2)C2(C(=O)NC3CCCC3)CCC(C)CC2)no1 (configuration not stated)
AC50 [5]: 5.4 µM (active)
AC50 [6]: 3.3 µM (active)
AC50 [7]: 13.4 µM (active)
AC50 [8]: 6.16 µM (active)

CCOC(=O)N1CCc2c(sc(NC(=O)c3ccc(Cl)s3)c2C(N)=O)C1
CC50 [1]: 17.3 µM (active)
EC50 [2]: 19.4 µM (active)
EC50 [3]: 15.7 µM (active)

CCC(=O)N1CCC2(CC1)CN(Cc1cccc(Cl)c1)[C@H](CO)c1c2c2ccc(OC)cc2n1C
AC50 [4]: 4.8 µM (active)

CC(=O)C1=C(C)N(Cc2ccc(Cl)cc2)C(=S)NC1c1cccc(Br)c1 (configuration not stated)
AC50 [5]: 5.96 µM (active)
AC50 [6]: 4.16 µM (active)
AC50 [7]: 22.6 µM (active)
AC50 [8]: 15.9 µM (active)

CC[C@]1(C(=O)OC)[C@H]2C(=O)N(Cc3ccccc3)C(=O)[C@H]2[C@H]2CN=C(SCC3CC3)N21
AC50 [5]: 1.12 µM (active)
AC50 [6]: 1.45 µM (active)
AC50 [7]: 5.46 µM (active)
AC50 [8]: 2.66 µM (active)

O=C(NCCc1ccc(Cl)cc1)c1ccc(C[S+]([O-])Cc2ccc(Cl)cc2)o1 (configuration not stated)
CC50 [1]: > 40 µM (active)

CCn1c(SCC(=O)Nc2ccccc2OC)nnc1-c1cnccn1
IC50 [9]: > 80 µM (inactive)
